Data published in patent publication US11555031B2, “Compounds and methods for regulating insulin secretion” (The Broad Institute, Inc., priority 2017, dated 2023).
“Also recorded” adds a separate entry of the source.

How the values were obtained:
[1] = system: INS-1E cells; assay: Luciferase Insulin Secretion Assay (proinsulin-Gaussia luciferase reporter); format: cell-based, rat; settings: INS-1E cells; 2.8 mM vs 16.7 mM glucose
Source text: A high-throughput luminescent insulin secretion assay was developed and performed to identify compounds that amplified insulin secretion only in the presence of a permissive glucose environment (FIG. 3). The assay used in compound screening is described in International Patent Publication No. WO2013070796A3, PCT/US2012/063982, and in Burns et al., High-Throughput Luminescent Reporter of Insulin Secretion for Discovering Regulators of Pancreatic Beta-Cell Function. Cell Metab. 2015 Jan. 6; 21(1):126-37.
The assay is a luminescent insulin secretion assay created by inserting Gaussia luciferase within the C-peptide portion of the insulin prohormone. Gaussia luciferase was chosen because of its small size and bright luciferase signal. To ensure full activity of the luciferase, a version was used that was codon-optimized for expression in mammalian cells. The enzyme was flanked with additional cleavage sites for prohormone convertase 2 (PC2), such that no extra amino acids should be present on the ends of the enzyme after processing within the vesicles (FIG. 4). Rat (INS-1E; Merglen et al., 2004) beta-cell lines stably expressing the reporter construct were generated. Assays using this cell type are referred to herein as Luciferase Insulin Secretion Assay.
A search for glucose-dependent insulin secretagogues was conducting by screening 384,216 compounds at a single concentration (10 μM) in duplicate using the Luciferase Insulin Secretion Assay, to identify those that increase insulin secretion only in the presence of high glucose (11.1 mM) (FIG. 6). These assays were performed in 1536 well format. A Z′ factor of 0.35 was obtained with respect the positive control (300 μM IBMX). The cutoff value selected was 45% activation, which was 3-4 standard deviations above background (solid uppermost line; FIG. 6).
For standard secretion assays, INS-1E cells were plated in 96-well format, preincubated for 1 hr in Krebs Ringer Buffer (KRB) with 2.8 mM glucose, and then stimulated for 1 hr in fresh KRB containing varying amounts of glucose and compounds. Insulin or C-peptide concentration was determined using an ELISA (Mercodia), following the manufacturer's protocol. Luciferase activity was determined from the same samples by adding the coelenterazine substrate to the supernatant to a final concentration of 10 μM and reading on a standard plate reader (BioTek).
INS-1E cells were expanded to 80% confluence in their growth medium, washed once in PBS, and preincubated for 1 hr at 37° C. in KRB with 2.8 mM glucose. Cells were then dissociated, spun at 300×g for 2 min, resuspended in fresh KRB without glucose, and filtered through 40 μm mesh (Becton Dickinson). Next, the cells were counted and diluted in KRB to 1×10^6 cells per ml, and glucose was added as required for each experiment. Cells were then seeded in 384-well format, 3×10^4 cells in 30 μl per well, using a Multidrop Combi device (Thermo Scientific). Compounds were pinned into each well using a Vario robot (CyBio) to a final concentration of 30 μM, and the plates were then incubated for 2 hr at 37° C. For assays involving a transfer step, the plates were then centrifuged at 300×g for 2 min, and 20 μl of supernatant was transferred to a new 384-well plate. Coelenterazine substrate was then added to a final concentration of 10 μM, and luciferase activity was determined using a standard plate reader (BioTek).

[2] = system: dissociated human islets; assay: Insulin secretion from dissociated human islets, insulin ELISA; format: cell-based
Method: Forskolin is included as a positive control.
Human islets were obtained through the Integrated Islet Distribution Program. Islets were maintained and dissociated in 96-well format as described (Walpita et al., J Biomol Screen 17: 509-518 2012). To test compounds for their effects on insulin secretion, the dissociated islets were washed gently in KRB and preincubated for 1 hr at 37° C. in KRB with 2.8 mM glucose. The cells were then washed twice with zero-glucose KRB and placed in 100 μl of fresh KRB with varied glucose concentrations plus compounds. After a 1 hr incubation at 37° C., the supernatant was removed, and insulin concentration was measured by ELISA (Mercodia) according to the manufacturer's instructions.

[3] = system: alpha-TC-1-6; assay: Luminescent glucagon secretion assay in alpha-cell line; format: cell-based; settings: compared with DMSO negative control
Method: FIG. 10 depicts the quantification of α-cell secretory activity in cells treated with DMSO, KCl, or Compound 8, using a luminescent assay for glucagon secretion.
To investigate the cell-type specificity of the compound, and to exclude the possibility that Compound 8 acts as a generic secretagogue, the compound was tested on secretion from a rodent alpha-cell line, “alpha-TC-1-6,” using a luciferase reporter for glucagon secretion that mirrors the insulin secretion assay (FIG. 10).

[4] = Plasma stability, human; format: in vitro ADME
Method: (§1) Measurements were performed on human, mouse (CD-1) and rat (SD) microsomes to determine the t1/2, the plasma protein binding (“PPB”) and the plasma stability (“PS”).

[5] = Plasma stability, mouse; format: in vitro ADME
Method: as §1

[6] = Plasma stability, rat; format: in vitro ADME
Method: as §1

[7] = system: C57B6/J mice; assay: In vivo efficacy, glucose tolerance test; parameters: species or system mouse; settings: 2 mg/kg tail vein injection, compared to control (vehicle)
Method: Three-month-old male C57B6/J mice of body weight ranging from 20 to 25 g were housed in plastic polycarbonate cages. The animals were maintained at 25° C. with a 12-hour dark, 12-hour light schedule with food and water available ad libitum.
After two weeks of adaptation, the animals were randomly divided into two treatment groups (vehicle and Compound 8 in vehicle) with 5 mice per group. Mice were fasted for 16 hours (overnight) and basal blood glucose level was measured by tail vein nick using the AlphaTRAK 2 glucometer. Animals were given Compound 8 (2 mg/kg body weight) in vehicle or vehicle alone (7.5% NMP, 7.5% Solutol HS-15, 85% normal saline) by tail vein injection. Glucose tolerance tests (GTT) were performed 10 minutes after injection. Animals were given glucose at a dose of 1 g/kg body weight by intraperitoneal injection. Blood glucose was measured using the glucometer immediately before glucose injection, and at 15, 30, 60, and 120 minutes after injection (FIGS. 19A and 19C). At the 0, 15, and 30 minute time points, blood samples for insulin measurements were collected into EDTA-coated tubes and centrifuged at 9000 rpm to separate plasma, which was then stored at −80° C. until analysis. Insulin levels in plasma were analyzed using the ultra-sensitive mouse insulin ELISA kit (Crystal Chem) (FIGS. 19B and 19D). […]

Cc1cccc(NC(=O)c2ccc(OCc3c(C)noc3C)cc2)c1C [Compound 8]
glucose-dependent (glucose-stimulated) insulin secretion, luciferase reporter [1]: significant increase in glucose-dependent insulin secretion; also recorded: dose-dependent effect; also recorded: more effective than even the positive control, forskolin | insulin secretion, human islets from nondiabetic donors ([2]; normal donors): significant increase in glucose-dependent insulin secretion; also recorded: dose-dependent effect | insulin secretion, human islets from type 2 diabetic donors ([2]; type 2 diabetes donors): significant increase in glucose-dependent insulin secretion; also recorded: increases insulin secretion | alpha-cell secretory activity (luciferase reporter for glucagon secretion) [3]: not to augment luciferase secretion; also recorded: insignificant change from DMSO negative control | PS [4]: 106.2 % remaining | PS [5]: 96.0 % remaining | PS [6]: 97.5 % remaining | glucose concentration area under the curve (AUC) ([7]; GTT 1 g/kg glucose i.p.): decreased | insulinogenic index ([7]; GTT): increase
